Measurements reported in patent US20100298256A1, “ANTIVIRAL COMPOUNDS” (priority 2007, published 2010).

What was measured:
[1] = in vivo; conditions: male, CD-1, mouse, plasma
Description: (§4) Plasma samples were collected at pre-dose, 1, 3, 6, 12, 24, 48, and 72 hours post-dose for P.O. treatment group and at pre-dose, 0.25, 2, 6, 12, 24, 48, and 72 hours post-dose for I.V. treatment group. All samples were collected within ±2 minutes of the targeted time.
(§5) Phenolphthalein was used as an internal standard. […] The samples were mixed by vortexing for 5 minutes, and centrifuged at 15,000 rpm at 4° C. for 10 minutes. A 150-μL aliquot of the supernatant was transferred to a 96-well plate and 10 uL of supernatant sample was injected into the LC-MS/MS system for analysis. In each analytical batch, PK samples were run concurrently with calibration standards (blank, 0, 5, 10, 25, 50, 100, 150, 300, and 500 ng/mL), and low, mid, high, and 10-fold dilution QC samples (15, 250, 400, and 2000 ng/m L).
A 1/Y^2 weighting factor was used.

[2] = tested on: HCV replicon AVA5 (genotype 1b, subgenomic replicon); experiment: HCV replication in cell culture, AVA5 replicon line (blot hybridization of HCV RNA); assay type: cell-based; conditions: AVA5 cultures, daily treatment for three days, normalized to β-actin RNA
Description: (§1) Antiviral activity of the test compounds was assessed (Okuse et al., 2005, Antivir. Res. 65:23) in the stably HCV replicating line, AVA5 (genotype 1b, subgenomic, replicon, Blight et al., 2000, Sci. 290: 1972) and APC 103 ((genotype 1a, genomic replicon). (ODE) phosphodiester ribavirin prodrug were added to dividing cultures daily for three days. Cultures generally start the assay at 30-50% confluence and reach confluence during the last day of treatment. Intracellular HCV RNA levels and cytotoxicity (on 96 well plates) were used. A total of 12 untreated control cultures and triplicate cultures treated with α-interferon and 2′CmeC served as assay controls.
(§2) Triplicate cultures for HCV RNA levels were measured using a conventional blot hybridization method in which HCV RNA levels were normalized to the levels of β-actin RNA in each individual culture (Okuse et al., 2005, Antivir. Res. 65:23). Cytotoxicity was measured using an established neutral red dye uptake assay (Korba et al., 1992, Antivir. Res. 19:55, Okuse et al., Antivir. Res. 65:23). Test compounds were received as powders on dry ice and were dissolved in 100% tissue culture grade DMSO (Sigma, Inc.) at 10 mM. Aliquots of test compounds sufficient for one daily treatment were made in individual tubes and all material was stored at −20° C. […]

[3] = CytoTox-ONE LDH release cytotoxicity assay, CEM; assay type: cell-based; conditions: human, CEM cells, read-out: TC50 (toxic concentration decreasing cell viability by 50%)
Description: (§3) CytoTox-ONE™ homogeneous membrane integrity assay kits (Promega) was used in the cytotoxicity studies. The assay measured the release of lactate dehyrodegenase (LDH) from cells with damaged membranes in a fluorometric, homogeneous format. […] The amount of fluorescence produced is proportional to the number of lysed cells. The cytotoxicity assessment assay was performed using a designed plate format […] for allocation of media, drug, cells, and virus in a 96 well plate. Six serially diluted concentrations of octadecyl-ethanediol-modified (ODE) phosphodiester Ribavirin prodrug was applied to the cells to derive the TC50 (toxic concentration of the drug decreasing the cell viability by 50%), TC90 (toxic concentration of the drug decreasing the cell viability by 90%) and TC95 (toxic concentration of the drug decreasing the cell viability by 95%) values.

[4] = tested on: CEM cells; experiment: CytoTox-ONE LDH release cytotoxicity assay, CEM; assay type: cell-based
Description: as §3

[5] = tested on: influenza A; experiment: microbe, parasite or virus in culture; conditions: MDCK, read-out: IC50 (minimum inhibitory drug concentration which reduces the CPE by 50%)
[6] = CytoTox-ONE LDH release cytotoxicity assay, PBMC; assay type: cell-based; conditions: PBMC cells, read-out: TC50 (toxic concentration decreasing cell viability by 50%)
Description: as §3

[7] = tested on: PBMC cells; experiment: CytoTox-ONE LDH release cytotoxicity assay, PBMC; assay type: cell-based
Description: as §3

[8] = tested on: influenza A
[9] = Pharmacokinetic study after single oral and intravenous administration in male CD-1 mice
Description: as §4, §5
A 1/Y^2 weighting factor was used.

[10] = tested on: HepG2 cells; experiment: CytoTox-ONE LDH release cytotoxicity assay, HepG2; assay type: cell-based
Description: as §3

[11] = CytoTox-ONE LDH release cytotoxicity assay, HepG2; assay type: cell-based; conditions: human, HepG2 cells, read-out: TC50 (toxic concentration decreasing cell viability by 50%)
Description: as §3

[12] = tested on: AVA5 and APC103 cultures; experiment: Cytotoxicity by neutral red dye uptake in the HCV replicon cultures; assay type: cell-based; conditions: at the concentrations used for the antiviral analyses
Description: as §1, §2

[13] = in vitro; conditions: dog
[14] = tested on: HCV replicon APC103 (genotype 1a, genomic replicon); experiment: HCV replication in cell culture, APC103 replicon line (blot hybridization of HCV RNA); assay type: cell-based; conditions: APC103 cultures, daily treatment for three days, normalized to β-actin RNA
Description: as §1, §2

Structure (SMILES): CCCCCCCCCCCCCCCCCCOCCOP(=O)(O)OC[C@H]1O[C@@H](n2cnc(C(N)=O)n2)[C@H](O)[C@@H]1O [(ODE) phosphodiester ribavirin prodrug, 1-(5-O-{hydroxy[2-(octadecyloxy)ethoxy]phosphoryl}-beta-D-ribofuranosyl)-1H-1,2,4-triazole-3-carboxamide]
- AUC(0-inf) ([1]; iv, 5 mg/kg): 2660 ng·h/mL
- AUC(0-t) ([1]; iv, 5 mg/kg): 2640 ng·h/mL
- Cmax ([1]; iv, 5 mg/kg): 1960 ng/mL
- Tmax ([1]; iv, 5 mg/kg): 0.25 h
- clearance ([1]; iv, 5 mg/kg): 31.3 mL/min/kg
- half-life ([1]; iv, 5 mg/kg): 67.8 min
- bioavailability ([1]; oral, 30 mg/kg): 10.7%
- AUC(0-inf) ([1]; po, 30 mg/kg): 1700 ng·h/mL
- AUC(0-t) ([1]; po, 30 mg/kg): 1660 ng·h/mL
- Cmax ([1]; po, 30 mg/kg): 407 ng/mL
- Tmax ([1]; po, 30 mg/kg): 3 h
- intracellular HCV RNA levels [2]: selective reductions in intracellular HCV RNA levels
- CC50 [3]: 14.1 µM
- TC90 (toxic concentration decreasing cell viability by 90%) [4]: 63.41 µM
- TC95 (toxic concentration decreasing cell viability by 95%) [4]: 84.55 µM
- IC50 [5]: < 316 nM
- CC50 [6]: 111 µM
- TC90 (toxic concentration decreasing cell viability by 90%) [7]: 245 µM
- TC95 (toxic concentration decreasing cell viability by 95%) [7]: 272 µM
- therapeutic index (TI50 = TC50 / IC50) [8]: greater than 210
- plasma levels (below LLOQ) ([9]; IV 5 mg/kg, from 12 hours to 72 hours post-dose): < 5 ng/mL
- plasma levels (below LLOQ) ([9]; PO 30 mg/kg, from 24 hours to 72 hours post-dose): < 5 ng/mL
- TC90 (toxic concentration decreasing cell viability by 90%) [10]: 28.32 µM
- TC95 (toxic concentration decreasing cell viability by 95%) [10]: 41.69 µM
- CC50 [11]: 13.2 µM
- toxicity (significant = greater than 50% depression of the dye uptake levels observed in untreated cells) [12]: No significant toxicity
- CC50 [13]: 66.4 µM
- intracellular HCV RNA levels [14]: selective reductions in intracellular HCV RNA levels

Structure (SMILES): NC(=O)c1ncn([C@@H]2O[C@H](CO)[C@@H](O)[C@H]2O)n1 [ribavirin, reference compound]
- toxicity (significant = greater than 50% depression of the dye uptake levels observed in untreated cells) [12]: Significant toxicity
